# Measurements: publication PMC11995724, “Antibiotic target discovery by integrated phenotypic and activity-based profiling of electrophilic fragments” (Cell chemical biology, 2025)
# Structures can show the parent of a compound that is named as a salt.
# Experiment: in vitro
# Conditions: human, hek293t cells
row,SMILES,"viability at 48 h, 25 µM"
1,"C=CC(=O)NC1(c2ccccc2)CCOC1 (stereo not drawn) [3-P04, N-(3-phenyloxolan-3-yl)prop-2-enamide]",89.3%
2,"Cc1cc(C)n(CC2CCN(C(=O)C(C)Cl)CC2)n1 (stereo not drawn) [7-P17, 2-chloro-1-{4-[(3,5-dimethyl-1H-pyrazol-1-yl)methyl]piperidin-1-yl}propan-1-one]",79.8%
3,"COc1cc(C=C(C#N)C(=O)NC2CCCCC2)cc(Cl)c1O [8-H21, 3-(3-chloro-4-hydroxy-5-methoxyphenyl)-2-cyano-N-cyclohexylprop-2-enamide]",92.7%
4,"CC(C1CC1)N(Cc1ccccc1)C(=O)CCl (stereo not drawn) [5-F09, N-benzyl-2-chloro-N-(1-cyclopropylethyl)acetamide]",0.956%
5,"CN(C)c1ccc(C=C(C#N)C(=O)N2CCC2)cc1 [9-A14, 2-(azetidine-1-carbonyl)-3-[4-(dimethylamino)phenyl]prop-2-enenitrile]",106%
6,"C=CC(=O)N1CCN(S(=O)(=O)CC)CC1 [3-D20, 1-[4-(ethanesulfonyl)piperazin-1-yl]prop-2-en-1-one]",106%
7,"CC(Cl)C(=O)NCCC1(CO)CC1 (stereo not drawn) [7-H19, 2-chloro-N-{2-[1-(hydroxymethyl)cyclopropyl]ethyl}propanamide]",90.1%
8,"CN(C)S(=O)(=O)c1ccc(NC(=O)CCl)cc1 [5-J11, 2-chloro-N-[4-(dimethylsulfamoyl)phenyl]acetamide]",1.08%
9,"CC(Cl)C(=O)N(Cc1nc(C2CCCCCC2)no1)C1CC1 (stereo not drawn) [7-E05, 2-chloro-N-[(3-cycloheptyl-1,2,4-oxadiazol-5-yl)methyl]-N-cyclopropylpropanamide]",78.1%
10,"Cc1nc2n(n1)CCN(C(=O)C(C)Cl)C2 (stereo not drawn) [5-A04, 2-chloro-1-{2-methyl-5H,6H,7H,8H-[1,2,4]triazolo[1,5-a]pyrazin-7-yl}propan-1-one]",107%
11,"C=CC(=O)NCCc1nc(C)no1 [3-N19, N-[2-(3-methyl-1,2,4-oxadiazol-5-yl)ethyl]prop-2-enamide]",74.2%
12,"CC(C)OC(=O)c1c(NC(=O)CCl)sc2c1CCCC2 [4-E21, propan-2-yl 2-(2-chloroacetamido)-4,5,6,7-tetrahydro-1-benzothiophene-3-carboxylate]",112%
13,"COc1cc(C)c(C(C)NC(=O)CCl)cc1OC (stereo not drawn) [6-M09, 2-chloro-N-[1-(4,5-dimethoxy-2-methylphenyl)ethyl]acetamide]",3.89%
14,"C=CC(=O)N(CC)CC(=O)N1CCCC(F)(F)C1 [2-G14, N-[2-(3,3-difluoropiperidin-1-yl)-2-oxoethyl]-N-ethylprop-2-enamide]",97.5%
15,"CC(NC(=O)CCl)c1ccc(-c2ccccc2)cc1 (stereo not drawn) [5-A17, N-(1-{[1,1'-biphenyl]-4-yl}ethyl)-2-chloroacetamide]",123%
16,"C=CC(=O)NCc1cccc2c1OCO2 [1-E07, N-[(1,3-dioxaindan-4-yl)methyl]prop-2-enamide]",69.1%
17,"COc1ccc(N(C)C(=O)C(C)Cl)cc1Cl (stereo not drawn) [7-C14, 2-chloro-N-(3-chloro-4-methoxyphenyl)-N-methylpropanamide]",80.4%
18,"O=C1C=CC(=O)N1CCCCO [10-K07, 1-(4-hydroxybutyl)-2,5-dihydro-1H-pyrrole-2,5-dione]",39.9%
19,"O=C1C=CC(=O)N1c1ccc(Oc2ccccc2)cc1 [10-F17, 1-(4-phenoxyphenyl)-2,5-dihydro-1H-pyrrole-2,5-dione]",73.6%
20,"C=CC(=O)N1CCC(Cc2noc(C)n2)CC1 [2-G22, 1-{4-[(5-methyl-1,2,4-oxadiazol-3-yl)methyl]piperidin-1-yl}prop-2-en-1-one]",103%

row,SMILES,"viability at 48 h, 25 µM"
1,"C=CC(=O)N1CCC(C(=O)Nc2ccc(CC)cc2)CC1 [3-J12, N-(4-ethylphenyl)-1-(prop-2-enoyl)piperidine-4-carboxamide]",85.6%
2,"C=CC(=O)NCc1ccc(C(=O)N2CCN(C(C)=O)CC2)cc1 [3-G17, N-{[4-(4-acetylpiperazine-1-carbonyl)phenyl]methyl}prop-2-enamide]",32.9%
3,"C=CC(=O)N1CCn2cccc2C12COC2 [1-K09, 1-{3',4'-dihydro-2'H-spiro[oxetane-3,1'-pyrrolo[1,2-a]pyrazin]-2'-yl}prop-2-en-1-one]",80.6%
4,"CC(Cl)C(=O)Nc1sc(-c2ccccc2)cc1C(N)=O (stereo not drawn) [4-H13, 2-(2-chloropropanamido)-5-phenylthiophene-3-carboxamide]",80.6%
5,"CN(C(=O)CCl)C(c1ccccc1)c1ccccc1 [5-H06, 2-chloro-N-(diphenylmethyl)-N-methylacetamide]",0.0655%
6,"O=C(CCl)c1ccncc1 [10-M09, 2-chloro-1-(pyridin-4-yl)ethan-1-one hydrochloride]",79.1%
7,"O=C(CCl)N1CCN(C(=O)c2cn(C3CC3)nn2)CC1 [5-D03, 2-chloro-1-[4-(1-cyclopropyl-1H-1,2,3-triazole-4-carbonyl)piperazin-1-yl]ethan-1-one]",2.35%
8,"O=C(CCl)NCc1cc(O)ccc1Cl [7-J21, 2-chloro-N-[(2-chloro-5-hydroxyphenyl)methyl]acetamide]",0.249%
9,"Cc1nn(C)c(C)c1CN(C(=O)CCl)C1CCCCC1C (stereo not drawn) [5-A14, 2-chloro-N-(2-methylcyclohexyl)-N-[(1,3,5-trimethyl-1H-pyrazol-4-yl)methyl]acetamide]",0.467%
10,"CC(Cl)C(=O)N1CCCCCC1 (stereo not drawn) [5-F11, 1-(azepan-1-yl)-2-chloropropan-1-one]",105%
11,"C=CC(=O)NCc1ccc(C(=O)N2CCC[C@@H]2C(N)=O)cc1 [3-L22, (2R)-1-{4-[(prop-2-enamido)methyl]benzoyl}pyrrolidine-2-carboxamide]",81.9%
12,"O=C1C=CC(=O)N1C1CNC1 [10-O19, 1-(azetidin-3-yl)-2,5-dihydro-1H-pyrrole-2,5-dione hydrochloride]",83.3%
13,"N#CC(=CC=Cc1ccccc1)C(=O)Nc1ccc(F)c(Cl)c1 [8-O18, N-(3-chloro-4-fluorophenyl)-2-cyano-5-phenylpenta-2,4-dienamide]",76.2%
14,"O=C(CCl)Cc1cc(Cl)cc(Cl)c1 [10-I15, 1-chloro-3-(3,5-dichlorophenyl)propan-2-one]",3.97%
15,"N#CC(C(=O)CCl)=C1Nc2cc(Cl)ccc2S1 [10-O08, 4-chloro-2-(5-chloro-2,3-dihydro-1,3-benzothiazol-2-ylidene)-3-oxobutanenitrile]",101%
16,"O=C(CCl)NCc1ccc(Cl)c(C(F)(F)F)c1 [7-D22, 2-chloro-N-{[4-chloro-3-(trifluoromethyl)phenyl]methyl}acetamide]",0.676%
17,"CC(Cl)C(=O)Nc1ccc2c(c1)ncn2-c1ccccc1 (stereo not drawn) [6-N13, 2-chloro-N-(1-phenyl-1H-1,3-benzodiazol-5-yl)propanamide]",105%
18,"CCOc1ccc(C=C(C#N)C(=O)N2CCc3sccc3C2)cc1 [8-G22, 3-(4-ethoxyphenyl)-2-{4H,5H,6H,7H-thieno[3,2-c]pyridine-5-carbonyl}prop-2-enenitrile]",61.5%
19,"CC1CN(c2ccc(NC(=O)C(C#N)=Cc3ccco3)cc2)CC(C)O1 (stereo not drawn) [9-J09, 2-cyano-N-[4-(2,6-dimethylmorpholin-4-yl)phenyl]-3-(furan-2-yl)prop-2-enamide]",109%
